The data set is described as follows: Plasma PK of major maoto compounds by LC-MS/MS after oral administration of maoto. It is filed as in vivo, rat. Here is the method: 1 (7:00-19:00). Rats were maintained and used for the experiments in accordance
2 with the Guidelines for the Care and Use of Laboratory Animals of Tsumura &
3 CO. All experimental procedures were carried out upon approval from the
4 Laboratory Animal Committee of Tsumura & CO.
8 administered to 16-h fasted rats (n=3). […]
14 and 4 g/10mL/kg) were determined by LC-MS/MS. Based on a literature search,
16 amygdalin, prunasin, scopoletin, l-ephedrine, d-pseudoephedrine,
1 Plasma PK data were analyzed by noncompartmental modeling using
2 Phoenix WinNonlin (version 6.3, Certara L.P., St. Louis, MO, USA) to determine
3 various PK constants including Cmax, tmax, t1/2, and AUC0–last. The t1/2 was divided
4 by loge2/ke, where ke is the rate constant of terminal elimination (at least three
5 data points on the descending linear limb). […]

Setting [1] is: Sprague-Dawley, rat, plasma, po, 1 g/kg.
Setting [2] is: Sprague-Dawley, rat, plasma, po, 1 g/kg, read-out: Cmax.
Setting [3] is: Sprague-Dawley, rat, plasma, po, 1 g/kg, read-out: Tmax.
[4] abbreviates: Sprague-Dawley, rat, plasma, po, 2 g/kg.
[5] abbreviates: Sprague-Dawley, rat, plasma, po, 2 g/kg, read-out: Cmax.
The mark [6] stands for this setting: Sprague-Dawley, rat, plasma, po, 2 g/kg, read-out: Tmax.
Where [7] appears, read: Sprague-Dawley, rat, plasma, po, 4 g/kg.
The mark [8] stands for this setting: Sprague-Dawley, rat, plasma, po, 4 g/kg, read-out: Cmax.
[9] abbreviates: Sprague-Dawley, rat, plasma, po, 4 g/kg, read-out: Tmax.

Read-outs that look alike come from different tables or passages of the source.

For orientation: AUC(0-t) means exposure summed from dosing to a finite time, without extrapolation to infinity. As usually defined, the Cmax is the maximum level reached in the sampled fluid or tissue. Broadly, the Tmax is the time at which the peak concentration occurs. For orientation: half-life means how long it takes for the measured level to halve. On to `COc1cc2ccc(=O)oc2cc1O` [Scopoletin], for which the AUC(0-t) reads like this: under setting [1], 0.07 ng·h/mL; under setting [4], 0.428 ng·h/mL; under setting [7], 0.591 ng·h/mL. The maximum concentration (Cmax) worked out at 0.216 ng/mL under setting [2], 0.425 ng/mL under setting [5] and 0.237 ng/mL under setting [8]. In addition, the Tmax came to 0.25 h under setting [3], 0.25 h under setting [6] and 0.25 h under setting [9]. Further, the half-life reads like this: under setting [4], 2.39 h; under setting [7], 5.44 h.

`CC(C(O)c1ccccc1)N(C)C` (racemic) [dl-Methylephedrine]: the exposure AUC(0-t) is 18.7 ng·h/mL under setting [1], 46 ng·h/mL under setting [4] and 94.9 ng·h/mL under setting [7]. The molecule also had a half-life under setting [1] of 5.96 h, a half-life under setting [4] of 1.99 h and a half-life under setting [7] of 11.5 h. Further, the Cmax is, setting by setting: under setting [2], 16.6 ng/mL; under setting [5], 22.5 ng/mL; under setting [8], 37 ng/mL. Further, the time of peak concentration (Tmax) was 0.25 h under setting [3], 0.25 h under setting [6] and 0.25 h under setting [9].

Consider `O=C1C[C@@H](c2ccc(O)cc2)Oc2cc(O)ccc21` [Liquiritigenin], for which, under “rat plasma, oral maoto 1 g/kg”, the AUClast came out at 17.4 ng·h/mL, the peak concentration (Cmax) amounted to 18.0 ng/mL and the Tmax is 0.250 h. Moreover, under “rat plasma, oral maoto 2 g/kg”, the AUClast came out at 35.0 ng·h/mL, the peak concentration (Cmax) is reported as 15.1 ng/mL and the Tmax was found to be 1.00 h. For the setting “rat plasma, oral maoto 4 g/kg”, the AUClast turned out to be 84.4 ng·h/mL, the maximum concentration (Cmax) is reported as 16.1 ng/mL and the Tmax amounted to 0.250 h.

`N#C[C@H](O[C@@H]1O[C@H](CO[C@@H]2O[C@H](CO)[C@@H](O)[C@H](O)[C@H]2O)[C@@H](O)[C@H](O)[C@H]1O)c1ccccc1` [Amygdalin]: the area under the curve AUC(0-t) came out at 346 ng·h/mL under setting [1], 1520 ng·h/mL under setting [4] and 7610 ng·h/mL under setting [7]. Moreover, the half-life is 1.31 h under setting [1], 0.937 h under setting [4] and 2.47 h under setting [7]. In addition, the Cmax came out at 101 ng/mL under setting [2], 653 ng/mL under setting [5] and 5250 ng/mL under setting [8]. Also, the time of peak concentration (Tmax) worked out at 0.25 h under setting [3], 1 h under setting [6] and 0.25 h under setting [9].

With `CN[C@@H](C)[C@@H](O)c1ccccc1` [d-Pseudoephedrine, d-pseudoephedrine], the AUC(0-t) is, setting by setting: under setting [1], 183 ng·h/mL; under setting [4], 559 ng·h/mL; under setting [7], 1180 ng·h/mL. The half-life is, setting by setting: under setting [1], 5.82 h; under setting [4], 6.58 h; under setting [7], 3.86 h. Further, the Cmax is 136 ng/mL under setting [2], 163 ng/mL under setting [5] and 253 ng/mL under setting [8]. Also, the Tmax under setting [3] was found to be 0.25 h, the Tmax under setting [6] is 0.25 h and the time of peak concentration (Tmax) under setting [9] was determined as 0.25 h.

For `Oc1cc(O)c2c(c1)O[C@H](c1ccc(O)c(O)c1)[C@H](O)C2` [Epicatechin], the AUC(0-t) reads like this: under setting [1], 4.24 ng·h/mL; under setting [4], 2.78 ng·h/mL; under setting [7], 6.92 ng·h/mL. For the same molecule, the half-life reads like this: under setting [1], 5.05 h; under setting [4], 2.03 h; under setting [7], 3.49 h. The maximum concentration (Cmax) under setting [2] is 1.82 ng/mL, the Cmax under setting [5] came out at 1.95 ng/mL and the Cmax under setting [8] was found to be 8.34 ng/mL. The time of peak concentration (Tmax) under setting [3] came out at 0.5 h, the time of peak concentration (Tmax) under setting [6] was 0.25 h and the time to peak (Tmax) under setting [9] was 0.25 h.

Take `CC1(C)[C@@H](O)CC[C@]2(C)[C@H]3C(=O)C=C4[C@@H]5C[C@@](C)(C(=O)O)CC[C@]5(C)CC[C@@]4(C)[C@]3(C)CC[C@@H]12` [Glycyrrhetinic acid]: the area under the curve AUC(0-t) by setting is: under setting [1], 2240 ng·h/mL; under setting [4], 4510 ng·h/mL; under setting [7], 3950 ng·h/mL. For the same molecule, the maximum concentration (Cmax) runs as follows: under setting [2], 234 ng/mL; under setting [5], 373 ng/mL; under setting [8], 301 ng/mL. The time to peak (Tmax) reads like this: under setting [3], 8 h; under setting [9], 8 h; (rat plasma, oral maoto 2 g/kg) 10 h.

Consider `N#C[C@H](O[C@@H]1O[C@H](CO)[C@@H](O)[C@H](O)[C@H]1O)c1ccccc1` [Prunasin], for which the AUC(0-t) by setting is: under setting [1], 5520 ng·h/mL; under setting [4], 11900 ng·h/mL; under setting [7], 32000 ng·h/mL. Also, the half-life is, setting by setting: under setting [1], 0.891 h; under setting [4], 2.45 h; under setting [7], 3.21 h. Moreover, the highest concentration (Cmax) runs as follows: under setting [2], 2020 ng/mL; under setting [5], 2240 ng/mL; under setting [8], 3250 ng/mL. Moreover, the time to peak (Tmax) is, setting by setting: under setting [3], 0.5 h; under setting [6], 0.5 h; under setting [9], 2 h.

Regarding `Oc1cc(O)c2c(c1)O[C@H](c1ccc(O)c(O)c1)[C@@H](O)C2` [(+)-Catechin], where the note is “rat plasma, oral maoto 1 g/kg”, the AUClast entry is on record as “BQL” and the peak concentration (Cmax) result is listed as “BQL”. Also, for the setting “rat plasma, oral maoto 2 g/kg”, the AUClast was determined as 0.111 ng·h/mL, the Cmax turned out to be 0.443 ng/mL and the Tmax is 1.00 h. For the setting “rat plasma, oral maoto 4 g/kg”, the AUClast was 1.71 ng·h/mL, the Cmax was 3.75 ng/mL and the Tmax is given as 0.250 h.

As for `O=C(O)/C=C/c1ccccc1` [Cinnamic acid], the exposure AUC(0-t) reads like this: under setting [1], 624 ng·h/mL; under setting [4], 2060 ng·h/mL; under setting [7], 5750 ng·h/mL. Also, the peak concentration (Cmax) runs as follows: under setting [2], 1060 ng/mL; under setting [5], 1280 ng/mL; under setting [8], 2120 ng/mL. Moreover, the half-life runs as follows: under setting [4], 1.3 h; under setting [7], 1.64 h.

For the molecule `COc1c(CC=C(C)C)c(O)cc2oc(=O)c(-c3ccc(O)cc3O)cc12` [Glycycoumarin], the exposure AUC(0-t) reads like this: under setting [1], 0.0105 ng·h/mL; under setting [4], 0.0227 ng·h/mL; under setting [7], 0.058 ng·h/mL. The highest concentration (Cmax) was 0.0836 ng/mL under setting [2], 0.0906 ng/mL under setting [5] and 0.0753 ng/mL under setting [8]. Moreover, the Tmax by setting is: under setting [3], 0.25 h; under setting [6], 1 h; under setting [9], 0.25 h.

For `O=C(/C=C/c1ccc(O)cc1)c1ccc(O)cc1O` [Isoliquiritigenin], the AUC(0-t) by setting is: under setting [1], 19.8 ng·h/mL; under setting [4], 31 ng·h/mL; under setting [7], 58.9 ng·h/mL. For the same molecule, the highest concentration (Cmax) was 10.4 ng/mL under setting [2], 10.1 ng/mL under setting [5] and 7.59 ng/mL under setting [8]. For the same molecule, the time to peak (Tmax) runs as follows: under setting [3], 0.25 h; under setting [6], 0.25 h; under setting [9], 0.25 h. The half-life was 11.1 h under setting [4] and 3.61 h under setting [7]. This molecule also had a t1/2 (rat plasma, oral maoto 1 g/kg) of 3.42 h.

Take `O=C1C[C@@H](c2ccc(O[C@@H]3O[C@H](CO)[C@@H](O)[C@H](O)[C@H]3O)cc2)Oc2cc(O)ccc21` [Liquiritin]: the area under the curve AUC(0-t) runs as follows: under setting [1], 8.9 ng·h/mL; under setting [4], 22.4 ng·h/mL; under setting [7], 61.4 ng·h/mL. Also, the half-life under setting [1] was 1.95 h, the half-life under setting [4] is 2.23 h and the half-life under setting [7] is 4.34 h. Also, the Cmax turned out to be 3.04 ng/mL under setting [2], 7.23 ng/mL under setting [5] and 71.7 ng/mL under setting [8]. Moreover, the time to peak (Tmax) stood at 0.25 h under setting [3], 1 h under setting [6] and 0.25 h under setting [9].

`Oc1cc(O)c2c(c1)O[C@H](c1cc(O)c(O)c(O)c1)[C@H](O)C2` [Epigallocatechin]: the AUC(0-t) turned out to be 0.457 ng·h/mL under setting [1], 0.26 ng·h/mL under setting [4] and 0.286 ng·h/mL under setting [7]. The molecule also showed a half-life under setting [1] of 5.23 h, a half-life under setting [4] of 3.16 h and a half-life under setting [7] of 0.834 h. In addition, the maximum concentration (Cmax) by setting is: under setting [2], 0.197 ng/mL; under setting [5], 0.103 ng/mL; under setting [8], 0.456 ng/mL. In addition, the Tmax by setting is: under setting [3], 0.5 h; under setting [6], 0.5 h; under setting [9], 0.25 h.

For `O=C(/C=C/c1ccc(O[C@@H]2O[C@H](CO)[C@@H](O)[C@H](O)[C@H]2O)cc1)c1ccc(O)cc1O` [Isoliquiritin], the AUC(0-t) is, setting by setting: under setting [1], 2.09 ng·h/mL; under setting [4], 6.03 ng·h/mL; under setting [7], 12.6 ng·h/mL. The half-life by setting is: under setting [1], 2.3 h; under setting [7], 3.14 h. For the same molecule, the Cmax runs as follows: under setting [2], 1.6 ng/mL; under setting [5], 3.6 ng/mL; under setting [8], 8.71 ng/mL. For the same molecule, the Tmax by setting is: under setting [3], 0.25 h; under setting [6], 1 h; under setting [9], 0.25 h.

Molecule `Oc1cc(O)c2c(c1)O[C@H](c1ccc(O)c(O)c1)[C@H](O)[C@H]2c1c(O)cc(O)c2c1O[C@H](c1ccc(O)c(O)c1)[C@H](O)[C@H]2c1c(O)cc(O)c2c1O[C@H](c1ccc(O)c(O)c1)[C@H](O)C2` [Procyanidin C1] came in with an AUC(0-t) under setting [7] of 1.69 ng·h/mL. For the same molecule, the Cmax under setting [8] turned out to be 3.9 ng/mL; the maximum concentration (Cmax) result (rat plasma, oral maoto 1 g/kg) is “BQL”; the highest concentration (Cmax) entry (rat plasma, oral maoto 2 g/kg) was “BQL”. For the same molecule, under setting [9], the Tmax amounted to 0.25 h. Besides, the “detection in rat plasma by targeted LC-MS/MS” value (oral maoto 2 g/kg) was “not detected”. For the same molecule, the AUClast entry is on record as “BQL” (rat plasma, oral maoto 1 g/kg) and “BQL” (rat plasma, oral maoto 2 g/kg).

With `O=c1ccc2ccc(O)cc2o1` [7-hydroxycoumarin], the “detection in rat plasma by targeted LC-MS/MS” value (oral maoto 2 g/kg) is reported as “not detected”. For the same molecule, the AUClast result is on record as “BQL” (rat plasma, oral maoto 1 g/kg); “BQL” (rat plasma, oral maoto 2 g/kg); “BQL” (rat plasma, oral maoto 4 g/kg). In addition, the peak concentration (Cmax) result was “BQL” (rat plasma, oral maoto 1 g/kg); “BQL” (rat plasma, oral maoto 2 g/kg); “BQL” (rat plasma, oral maoto 4 g/kg).

For the origin of these results see article PMC5654968 (NPJ Systems Biology and Applications, 2017).
